Experimental data published in patent US12479821B2 (MBD CO., LTD., priority 2019, dated 2025).

Molecular target: T1, CYP4A (Homo sapiens, UniProt Q02928)
T1 construct: host or cells: bactosome, i.e. bacterial membrane preparation (own knowledge of the term)
T1 sequence (Q02928 5-519): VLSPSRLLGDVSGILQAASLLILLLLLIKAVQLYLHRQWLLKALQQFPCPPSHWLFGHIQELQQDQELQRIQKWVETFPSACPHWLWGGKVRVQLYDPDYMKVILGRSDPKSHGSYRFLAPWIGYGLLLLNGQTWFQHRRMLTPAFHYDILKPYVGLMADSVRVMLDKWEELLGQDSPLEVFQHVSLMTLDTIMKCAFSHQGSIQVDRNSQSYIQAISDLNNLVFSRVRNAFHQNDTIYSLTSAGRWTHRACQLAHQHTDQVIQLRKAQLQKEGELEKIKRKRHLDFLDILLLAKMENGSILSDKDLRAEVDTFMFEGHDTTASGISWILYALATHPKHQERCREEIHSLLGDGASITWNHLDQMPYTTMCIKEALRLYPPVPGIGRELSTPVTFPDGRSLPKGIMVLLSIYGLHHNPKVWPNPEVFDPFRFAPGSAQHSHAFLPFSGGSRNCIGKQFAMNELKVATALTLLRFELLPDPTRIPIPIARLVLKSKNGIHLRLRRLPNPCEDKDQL
Assay: CYP4A enzyme assay (Luciferin-ME luminescence, CYP4A bactosome)
Type: biochemical
Conditions: compound concentration 5 μM; 25%-50%; read-out: % Inhibition 25%-50%
How it was run: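 CYP4A bactosome preincubated 15 min at room temperature with compound (5 μM) in 100 mM KPO4, 0.1% BSA, 1 mM DTT. Luciferin-ME (5 mM) plus NADPH regeneration system added, 30 min at room temperature, then detection reagent for 15 min. Inhibition derived from luminescence versus controls.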

Row | inhibition at 5 µM [%] | Structure (SMILES)
1 | 25 to 50 | Cc1cc(N2CCN(C(=O)C3CCCN(S(=O)(=O)c4ccc(N)cc4)C3)CC2)c2ccccc2n1 (centres unmarked) [Formula 96, (1-(4-aminophenylsulfonyl)piperidin-3-yl) (4-(2-methylquinolin-4-yl)piperazin-1-yl) methanone]
2 | 25 to 50 | O=C(O)c1ccc(S(=O)(=O)N2CCCC(C(=O)N3CCN(c4ccnc5cc(Cl)ccc45)CC3)C2)cc1 (centres unmarked) [Formula 98, 4-((3-(1-(7-chloroquinolin-4-yl)piperazine-1-carbonyl)piperidin-1-yl)sulfonyl)benzoic acid]
3 | 25 to 50 | Cc1cc(N2CCN(C(=O)C3CCCN(S(=O)(=O)c4ccc(C(=O)N(C)C)cc4)C3)CC2)c2ccccc2n1 (centres unmarked) [Formula 101, N,N-dimethyl-4-(3-(1-(2-methylquinolin-4-yl)piperazine-4-carbonyl)piperidin-1-ylsulfonyl)benzamide]

Same assay, conditions: compound concentration 5 μM; 75% or more; read-out: % Inhibition 75% or more

Row | inhibition at 5 µM [%] | Structure (SMILES)
4 | ≥ 75 | O=C(C1CCCN(S(=O)(=O)c2cccc(O)c2)C1)N1CCN(c2ccnc3cc(F)ccc23)CC1 (centres unmarked) [Formula 94, (4-(7-fluoroquinolin-4-yl)piperazin-1-yl) (1-(3-hydroxyphenylsulfonyl)piperidin-3-yl) methanone]
5 | ≥ 75 | O=C(C1CCCN(S(=O)(=O)c2cccc(O)c2)C1)N1CCN(c2ccnc3ccccc23)CC1 (centres unmarked) [Formula 95, (1-(3-hydroxyphenylsulfonyl)piperidin-3-yl) (4-(quinolin-4-yl)piperazin-1-yl) methanone]
6 | 0 | Cc1cc(N2CCN(C(=O)C3CCCN(S(=O)(=O)c4ccc(-c5ccncc5)cc4)C3)CC2)c2ccccc2n1 (centres unmarked) [Formula 102, (4-(2-methylquinolin-4-yl)piperazin-1-yl) (1-((4-(pyridin-4-yl)phenyl)sulfonyl)piperidin-3-yl)methanone]
7 | 0 | Cc1cc(N2CCN(C(=O)C3CCCN(S(=O)(=O)c4ccc(-c5cnc(C)nc5)cc4)C3)CC2)c2ccccc2n1 (centres unmarked) [Formula 104, (1-((4-(2-methylpyrimidin-5-yl)phenyl)sulfonyl)piperidin-3-yl) (4-(2-methylquinolin-4-yl)piperazin-1-yl) methanone]
8 | 0 | Cc1cc(N2CCN(C(=O)C3CCCN(S(=O)(=O)c4ccc(-c5cccnc5)cc4)C3)CC2)c2ccccc2n1 (centres unmarked) [Formula 105, (4-(2-methylquinolin-4-yl)piperazin-1-yl) (1-((4-(pyridin-3-yl)phenyl)sulfonyl)piperidin-3-yl) methanone]
9 | 0 | O=C(C1CCCN(S(=O)(=O)c2ccc(-c3ccncc3)cc2)C1)N1CCN(c2ccnc3cc(F)ccc23)CC1 (centres unmarked) [Formula 106, (4-(7-fluoroquinolin-4-yl)piperazin-1-yl) (1-(4-(pyridin-4-yl)phenylsulfonyl)piperidin-3-yl) methanone]
10 | ≥ 75 | O=C([C@@H]1CCCN(S(=O)(=O)c2ccc(-c3ccncc3)cc2)C1)N1CCN(c2ccnc3cc(F)ccc23)CC1 [Formula 107, (R)-(4-(7-fluoroquinolin-4-yl)piperazin-1-yl) (1-(4-(pyridin-4-yl)phenylsulfonyl)piperidin-3-yl) methanone]
11 | ≥ 75 | O=C(C1CCCN(S(=O)(=O)c2ccc(-c3cccnc3)cc2)C1)N1CCN(c2ccnc3cc(F)ccc23)CC1 (centres unmarked) [Formula 108, (4-(7-fluoroquinolin-4-yl)piperazin-1-yl) (1-(4-(pyridin-3-yl)phenylsulfonyl)piperidin-3-yl) methanone]
12 | ≥ 75 | O=C(C1CCCN(S(=O)(=O)c2cccc(-c3ccncc3)c2)C1)N1CCN(c2ccnc3cc(F)ccc23)CC1 (centres unmarked) [Formula 109, (4-(7-fluoroquinolin-4-yl)piperazin-1-yl) (1-(3-(pyridin-4-yl)phenylsulfonyl)piperidin-3-yl) methanone]
13 | ≥ 75 | O=C(C1CCCN(S(=O)(=O)c2cccc(-c3cccnc3)c2)C1)N1CCN(c2ccnc3cc(F)ccc23)CC1 (centres unmarked) [Formula 110, (4-(7-fluoroquinolin-4-yl)piperazin-1-yl) (1-(3-(pyridin-3-yl)phenylsulfonyl)piperidin-3-yl) methanone]
14 | ≥ 75 | O=C(C1CCCN(S(=O)(=O)c2ccc(-c3cncnc3)cc2)C1)N1CCN(c2ccnc3cc(F)ccc23)CC1 (centres unmarked) [Formula 111, (4-(7-fluoroquinolin-4-yl)piperazin-1-yl) (1-(4-(pyrimidin-5-yl)phenylsulfonyl)piperidin-3-yl) methanone]
15 | ≥ 75 | O=C(C1CCCN(S(=O)(=O)c2cccc(-c3cncnc3)c2)C1)N1CCN(c2ccnc3cc(F)ccc23)CC1 (centres unmarked) [Formula 112, (4-(7-fluoroquinolin-4-yl)piperazin-1-yl) (1-(3-(pyrimidin-5-yl)phenylsulfonyl)piperidin-3-yl) methanone]
16 | ≥ 75 | O=C(C1CCCN(S(=O)(=O)c2ccc(-c3ccncc3)cc2)C1)N1CCN(c2ccnc3ccccc23)CC1 (centres unmarked) [Formula 113, (1-(4-(pyridin-4-yl)phenylsulfonyl)piperidin-3-yl) (4-(quinolin-4-yl)piperazin-1-yl) methanone]
17 | ≥ 75 | O=C(C1CCCN(S(=O)(=O)c2ccc(-c3cccnc3)cc2)C1)N1CCN(c2ccnc3ccccc23)CC1 (centres unmarked) [Formula 114, (1-(4-(pyridin-3-yl)phenylsulfonyl)piperidin-3-yl) (4-(quinolin-4-yl)piperazin-1-yl) methanone]
18 | ≥ 75 | Cc1ncc(-c2ccc(S(=O)(=O)N3CCCC(C(=O)N4CCN(c5ccnc6ccccc56)CC4)C3)cc2)cn1 (centres unmarked) [Formula 115, (1-(4-(2-methylpyrimidin-5-yl)phenylsulfonyl)piperidin-3-yl) (4-(quinolin-4-yl)piperazin-1-yl) methanone]
19 | ≥ 75 | CC(=O)Nc1ccc(S(=O)(=O)N2CCCC(C(=O)N3CCN(c4ccnc5cc(Cl)ccc45)CC3)C2)cc1 (centres unmarked) [Formula 116, N-(4-(3-(4-(7-chloroquinolin-4-yl)piperazine-1-carbonyl)piperidin-1-ylsulfonyl)phenyl) acetamide]
20 | ≥ 75 | O=C(C1CCCN(S(=O)(=O)c2ccc([N+](=O)[O-])cc2)C1)N1CCN(c2ccnc3cc(Cl)ccc23)CC1 (centres unmarked) [Formula 117, (4-(7-chloroquinolin-4-yl)piperazin-1-yl) (1-(4-nitrophenylsulfonyl)piperidin-3-yl) methanone]
21 | ≥ 75 | CCCCc1ccc(N=CNO)c(C)c1 [HET-0016, N-hydroxy-N′-(4-butyl-2-methylphenyl)-formamidine, reference compound]

Same assay, conditions: compound concentration 5 μM; '50%-75%'; read-out: % Inhibition 50%-75%

Row | inhibition at 5 µM [%] | Structure (SMILES)
22 | 50 to 75 | COc1ccc2c(N3CCN(C(=O)C4CCCN(S(=O)(=O)c5ccc(N(C)C)cc5)C4)CC3)ccnc2c1 (centres unmarked) [Formula 90, (1-(4-(dimethylamino)phenylsulfonyl)piperidin-3-yl) (4-(7-methoxyquinolin-4-yl)piperazin-1-yl) methanone]
23 | 50 to 75 | COc1ccc2c(N3CCN(C(=O)C4CCCN(S(=O)(=O)c5ccc(O)cc5)C4)CC3)ccnc2c1 (centres unmarked) [Formula 91, (1-(4-hydroxyphenylsulfonyl)piperidin-3-yl) (4-(7-methoxyquinolin-4-yl)piperazin-1-yl)methanone]
24 | 50 to 75 | O=C(C1CCCN(S(=O)(=O)c2cccc(O)c2)C1)N1CCN(c2ccnc3cc(Cl)ccc23)CC1 (centres unmarked) [Formula 92, (4-(7-chloroquinolin-4-yl)piperazin-1-yl) (1-(3-hydroxyphenylsulfonyl)piperidin-3-yl) methanone]
25 | 50 to 75 | Cc1cc(N2CCN(C(=O)C3CCCN(S(=O)(=O)c4cccc(O)c4)C3)CC2)c2ccccc2n1 (centres unmarked) [Formula 93, (1-(3-hydroxyphenylsulfonyl)piperidin-3-yl) (4-(2-methylquinolin-4-yl)piperazin-1-yl) methanone]
26 | 0 | Nc1ccc(S(=O)(=O)N2CCCC(C(=O)N3CCN(c4ccnc5ccccc45)CC3)C2)cc1 (centres unmarked) [Formula 97, (1-(4-aminophenylsulfonyl)piperidin-3-yl) (4-(quinolin-4-yl)piperazin-1-yl) methanone]
27 | 50 to 75 | CN(C)C(=O)c1ccc(S(=O)(=O)N2CCCC(C(=O)N3CCN(c4ccnc5cc(Cl)ccc45)CC3)C2)cc1 (centres unmarked) [Formula 99, 4-(3-(1-(7-chloroquinolin-4-yl)piperazine-4-carbonyl)piperidin-1-ylsulfonyl)-N,N-dimethylbenzamide]
28 | 50 to 75 | Cc1cc(N2CCN(C(=O)C3CCCN(S(=O)(=O)c4ccc(-c5cncnc5)cc4)C3)CC2)c2ccccc2n1 (centres unmarked) [Formula 103, (4-(2-methylquinolin-4-yl)piperazin-1-yl) (1-((4-(pyrimidin-5-yl)phenyl)sulfonyl)piperidin-3-yl) methanone]

Same assay, conditions: compound concentration 5 μM; mark in column '25% or less'; read-out: % Inhibition 25% or less

Row | inhibition at 5 µM [%] | Structure (SMILES)
29 | ≤ 25 | Cc1cc(N2CCN(C(=O)C3CCCN(S(=O)(=O)c4ccc(C(=O)O)cc4)C3)CC2)c2ccccc2n1 (centres unmarked) [Formula 100, 4-(3-(1-(2-methylquinolin-4-yl)piperazine-4-carbonyl)piperidin-1-ylsulfonyl)benzoic acid]
